{"source": "patent US20220289679A1", "about": "“HETEROCYCLIC COMPOUND” (Takeda Pharmaceutical Company Limited, priority 2019, published 2022)", "data": [{"target": "T1, human GCS (glucosylceramide synthase) (Homo sapiens, UniProt Q16739)", "T1 construct": "made in house; host or cells: Expi293F cells (transient expression; microsome fraction)", "T1 sequence (Q16739 1-394)": "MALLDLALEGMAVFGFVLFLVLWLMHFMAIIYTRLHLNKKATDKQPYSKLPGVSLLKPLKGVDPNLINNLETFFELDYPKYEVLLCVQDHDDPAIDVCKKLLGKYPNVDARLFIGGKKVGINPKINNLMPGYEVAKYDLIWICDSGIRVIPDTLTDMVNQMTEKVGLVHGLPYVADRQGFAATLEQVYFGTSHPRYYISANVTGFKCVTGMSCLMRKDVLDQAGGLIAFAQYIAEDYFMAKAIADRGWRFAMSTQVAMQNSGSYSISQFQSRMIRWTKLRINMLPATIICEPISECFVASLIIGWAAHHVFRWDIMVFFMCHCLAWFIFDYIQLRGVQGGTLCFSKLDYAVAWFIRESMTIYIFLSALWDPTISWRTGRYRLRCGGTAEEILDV", "assay": "Glucosylceramide Synthase (GCS) Assay", "format": "biochemical", "details": "test compound 10 μM; microsome fraction of Expi293F cells expressing human GCS; 1.7 μM UDP-glucose, 3 μM C8 ceramide; room temperature 60 min; C8 glucosylceramide by Rapidfire MS/MS; read-out: GCS enzyme inhibitory rate at 10 μM (%)", "outline": "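Test compounds were run at a final 10 μM against liposomal C8 ceramide (3 μM) and UDP-glucose at its Km (1.7 μM). Human GCS came as microsomes from transfected Expi293F cells, incubated 60 min at room temperature, pH 7.5. Product measured by RapidFire MS/MS; 0% and 100% inhibition were DMSO and no-enzyme wells.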", "units": {"inhibition at 10 µM": "%"}, "values": [{"smiles": "CC(C)(O)Cn1cc(C(=O)Nc2ccc(OCC(F)(F)F)cc2)c(=O)c(-c2ccccc2OCC(F)F)n1", "note": "[Example 168, 6-[2-(2,2-difluoroethoxy)phenyl]-2-(2-hydroxy-2-methylpropyl)-5-oxo-N-[4-(2,2,2-trifluoroethoxy)phenyl]-2,5-dihydropyridazine-4-carboxamide]", "inhibition at 10 µM": 96}, {"smiles": "CC(C)(O)c1ccc(NC(=O)c2cn(C3CC3)nc(-c3ccccc3OCC(F)F)c2=O)cc1", "note": "[Example 169, 2-cyclopropyl-6-[2-(2,2-difluoroethoxy)phenyl]-N-[4-(2-hydroxypropan-2-yl)phenyl]-5-oxo-2,5-dihydropyridazine-4-carboxamide]", "inhibition at 10 µM": 100}, {"smiles": "CCOC(=O)c1ccc(NC(=O)c2cc(C)nn(-c3ccccc3OCC(F)F)c2=O)s1", "note": "[Example 170, ethyl 5-({2-[2-(2,2-difluoroethoxy)phenyl]-6-methyl-3-oxo-2,3-dihydropyridazine-4-carbonyl}amino)thiophene-2-carboxylate]", "inhibition at 10 µM": 65}, {"smiles": "Cn1cc(C(=O)Nc2ccc(C(C)(C)C#N)cc2)c(=O)c(-c2ccccc2OCC(F)F)n1", "note": "[Example 172, N-[4-(2-cyanopropan-2-yl)phenyl]-6-[2-(2,2-difluoroethoxy)phenyl]-2-methyl-5-oxo-2,5-dihydropyridazine-4-carboxamide]", "inhibition at 10 µM": 100}, {"smiles": "CC(C)(O)Cn1cc(C(=O)Nc2ccc(OC(F)F)cc2)c(=O)c(-c2ccccc2OCC(F)F)n1", "note": "[Example 173, 6-[2-(2,2-difluoroethoxy)phenyl]-N-[4-(difluoromethoxy)phenyl]-2-(2-hydroxy-2-methylpropyl)-5-oxo-2,5-dihydropyridazine-4-carboxamide]", "inhibition at 10 µM": 95}, {"smiles": "CC(C)(O)Cn1cc(C(=O)Nc2ccc(C(C)(C)O)cc2)c(=O)c(-c2ccccc2OCC(F)F)n1", "note": "[Example 174, 6-[2-(2,2-difluoroethoxy)phenyl]-2-(2-hydroxy-2-methylpropyl)-N-[4-(2-hydroxypropan-2-yl)phenyl]-5-oxo-2,5-dihydropyridazine-4-carboxamide]", "inhibition at 10 µM": 91}, {"smiles": "O=C(Nc1ccc(C(O)(C(F)F)C(F)F)cc1)c1cn(CC2COC2)nc(-c2ccccc2OCC(F)F)c1=O", "note": "[Example 175, 6-[2-(2,2-difluoroethoxy)phenyl]-2-[(oxetan-3-yl)methyl]-5-oxo-N-[4-(1,1,3,3-tetrafluoro-2-hydroxypropan-2-yl)phenyl]-2,5-dihydropyridazine-4-carboxamide]", "inhibition at 10 µM": 100}, {"smiles": "Cn1cc(C(=O)Nc2ccc(C(O)(C(F)F)C(F)F)nc2)c(=O)c(-c2ccccc2OCC(F)F)n1", "note": "[Example 176, 6-[2-(2,2-difluoroethoxy)phenyl]-2-methyl-5-oxo-N-[6-(1,1,3,3-tetrafluoro-2-hydroxypropan-2-yl)pyridin-3-yl]-2,5-dihydropyridazine-4-carboxamide]", "inhibition at 10 µM": 100}, {"smiles": "O=C(Nc1ccc(C(O)(C(F)F)C(F)F)nc1)c1cn(C(F)F)nc(-c2ccccc2OCC(F)F)c1=O", "note": "[Example 177, 6-[2-(2,2-difluoroethoxy)phenyl]-2-(difluoromethyl)-5-oxo-N-[6-(1,1,3,3-tetrafluoro-2-hydroxypropan-2-yl)pyridin-3-yl]-2,5-dihydropyridazine-4-carboxamide]", "inhibition at 10 µM": 100}, {"smiles": "CC(C)(O)Cn1cc(C(=O)Nc2ccc(C(O)(C(F)F)C(F)F)nc2)c(=O)c(-c2ccccc2OCC(F)F)n1", "note": "[Example 178, 6-[2-(2,2-difluoroethoxy)phenyl]-2-(2-hydroxy-2-methylpropyl)-5-oxo-N-[6-(1,1,3,3-tetrafluoro-2-hydroxypropan-2-yl)pyridin-3-yl]-2,5-dihydropyridazine-4-carboxamide]", "inhibition at 10 µM": 97}, {"smiles": "CC(C)(O)c1ccc(NC(=O)c2cn(CC(F)F)nc(-c3ccccc3OCC(F)F)c2=O)cc1", "note": "[Example 179, 6-[2-(2,2-difluoroethoxy)phenyl]-2-(2,2-difluoroethyl)-N-[4-(2-hydroxypropan-2-yl)phenyl]-5-oxo-2,5-dihydropyridazine-4-carboxamide]", "inhibition at 10 µM": 99}, {"smiles": "CC(C)(O)c1ccc(NC(=O)c2cn(CC3COC3)nc(-c3ccccc3OCC(F)F)c2=O)cc1", "note": "[Example 180, 6-[2-(2,2-difluoroethoxy)phenyl]-N-[4-(2-hydroxypropan-2-yl)phenyl]-2-[(oxetan-3-yl)methyl]-5-oxo-2,5-dihydropyridazine-4-carboxamide]", "inhibition at 10 µM": 96}, {"smiles": "O=C(Nc1ccc(F)cc1F)c1cn(CC2COC2)nc(-c2ccccc2OCC(F)F)c1=O", "note": "[Example 181, 6-[2-(2,2-difluoroethoxy)phenyl]-N-(2,4-difluorophenyl)-2-[(oxetan-3-yl)methyl]-5-oxo-2,5-dihydropyridazine-4-carboxamide]", "inhibition at 10 µM": 97}, {"smiles": "O=C(Nc1ccc(F)cc1F)c1cn(C2COC2)nc(-c2ccccc2OCC(F)F)c1=O", "note": "[Example 182, 6-[2-(2,2-difluoroethoxy)phenyl]-N-(2,4-difluorophenyl)-2-(oxetan-3-yl)-5-oxo-2,5-dihydropyridazine-4-carboxamide]", "inhibition at 10 µM": 90}, {"smiles": "CC(C)(O)c1ccc(NC(=O)c2cn(C3COC3)nc(-c3ccccc3OCC(F)F)c2=O)cc1", "note": "[Example 183]", "inhibition at 10 µM": 100}, {"smiles": "O=C(Nc1ccc(C(O)(C(F)F)C(F)F)cc1)c1cn(C2COC2)nc(-c2ccccc2OCC(F)F)c1=O", "note": "[Example 184, 6-[2-(2,2-difluoroethoxy)phenyl]-2-(oxetan-3-yl)-5-oxo-N-[4-(1,1,3,3-tetrafluoro-2-hydroxypropan-2-yl)phenyl]-2,5-dihydropyridazine-4-carboxamide]", "inhibition at 10 µM": 100}, {"smiles": "Cn1cc(C(=O)Nc2ccc(C(F)F)cc2)c(=O)c(-c2ccccc2OCC(F)F)n1", "note": "[Example 185, 6-[2-(2,2-difluoroethoxy)phenyl]-N-[4-(difluoromethyl)phenyl]-2-methyl-5-oxo-2,5-dihydropyridazine-4-carboxamide]", "inhibition at 10 µM": 79}, {"smiles": "O=C(Nc1ccc(C(O)(C(F)F)C(F)F)nc1)c1cn(CC(F)F)nc(-c2ccccc2OCC(F)F)c1=O", "note": "[Example 186, 6-[2-(2,2-difluoroethoxy)phenyl]-2-(2,2-difluoroethyl)-5-oxo-N-[6-(1,1,3,3-tetrafluoro-2-hydroxypropan-2-yl)pyridin-3-yl]-2,5-dihydropyridazine-4-carboxamide]", "inhibition at 10 µM": 100}, {"smiles": "O=C(Nc1ccc(C(O)(C(F)F)C(F)F)nc1)c1cn(C2COC2)nc(-c2ccccc2OCC(F)F)c1=O", "note": "[Example 187, 6-[2-(2,2-difluoroethoxy)phenyl]-2-(oxetan-3-yl)-5-oxo-N-[6-(1,1,3,3-tetrafluoro-2-hydroxypropan-2-yl)pyridin-3-yl]-2,5-dihydropyridazine-4-carboxamide]", "inhibition at 10 µM": 100}, {"smiles": "O=C(Nc1ccc(C(O)(C(F)F)C(F)F)nc1)c1cn(CC2COC2)nc(-c2ccccc2OCC(F)F)c1=O", "note": "[Example 188, 6-[2-(2,2-difluoroethoxy)phenyl]-2-[(oxetan-3-yl)methyl]-5-oxo-N-[6-(1,1,3,3-tetrafluoro-2-hydroxypropan-2-yl)pyridin-3-yl]-2,5-dihydropyridazine-4-carboxamide]", "inhibition at 10 µM": 99}, {"smiles": "O=C(Nc1ccc(C(O)(C(F)F)C(F)F)nc1)c1cn(C2CC2)nc(-c2ccccc2OCC(F)F)c1=O", "note": "[Example 189, 2-cyclopropyl-6-[2-(2,2-difluoroethoxy)phenyl]-5-oxo-N-[6-(1,1,3,3-tetrafluoro-2-hydroxypropan-2-yl)pyridin-3-yl]-2,5-dihydropyridazine-4-carboxamide]", "inhibition at 10 µM": 100}, {"smiles": "Cn1cc(C(=O)Nc2ccc(C(C)(C)C#N)cc2)c(=O)c(-c2ccccc2OCC(F)(F)F)n1", "note": "[Example 190, N-[4-(2-cyanopropan-2-yl)phenyl]-2-methyl-5-oxo-6-[2-(2,2,2-trifluoroethoxy)phenyl]-2,5-dihydropyridazine-4-carboxamide]", "inhibition at 10 µM": 100}, {"smiles": "CC(C)(C#N)c1ccc(NC(=O)c2cn(C3COC3)nc(-c3ccccc3OCC(F)F)c2=O)cc1", "note": "[Example 191, N-[4-(2-cyanopropan-2-yl)phenyl]-6-[2-(2,2-difluoroethoxy)phenyl]-2-(oxetan-3-yl)-5-oxo-2,5-dihydropyridazine-4-carboxamide]", "inhibition at 10 µM": 100}, {"smiles": "CC(C)(C#N)c1ccc(NC(=O)c2cn(C3CC3)nc(-c3ccccc3OCC(F)F)c2=O)cc1", "note": "[Example 192, N-[4-(2-cyanopropan-2-yl)phenyl]-2-cyclopropyl-6-[2-(2,2-difluoroethoxy)phenyl]-5-oxo-2,5-dihydropyridazine-4-carboxamide]", "inhibition at 10 µM": 100}, {"smiles": "CCOC(=O)c1ccc(NC(=O)c2cc(C)nn(-c3ccccc3OCC(F)F)c2=O)cc1", "note": "[Example 194, ethyl 4-({2-[2-(2,2-difluoroethoxy)phenyl]-6-methyl-3-oxo-2,3-dihydropyridazine-4-carbonyl}amino)benzoate]", "inhibition at 10 µM": 97}, {"smiles": "CC(=O)c1cc(C(=O)Nc2ccc(OC(F)F)cc2)c(=O)n(-c2ccccc2OCC(F)(F)F)n1", "note": "[Example 197, 6-acetyl-N-[4-(difluoromethoxy)phenyl]-3-oxo-2-[2-(2,2,2-trifluoroethoxy)phenyl]-2,3-dihydropyridazine-4-carboxamide]", "inhibition at 10 µM": 99}, {"smiles": "CCOC(=O)c1cc(C(=O)Nc2ccc(OC(F)F)cc2)c(=O)n(-c2ccccc2OCC(F)(F)F)n1", "note": "[Example 198, ethyl 5-{[4-(difluoromethoxy)phenyl]carbamoyl}-6-oxo-1-[2-(2,2,2-trifluoroethoxy)phenyl]-1,6-dihydropyridazine-3-carboxylate]", "inhibition at 10 µM": 98}]}]}
